Results reported in PubChem BioAssay (NCI).
Where “and” joins values, the source holds several entries; their conditions need not be identical. Equal entries are not always repeated.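 Growth conditions: 96-well plates. Treatment: test compound, 48 hours, 5 concentrations. Analysis: linear interpolation between bracketing concentrations; unreached endpoints set to highest concentration. GI50: concentration for 50% inhibition of growth. TGI denotes the concentration required for complete inhibition of growth.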

Tests used:
Assay in all cases: NCI-60 cell line screen, 48 h
A498 renal = tested on: A498 renal
A549 NSCLC = tested on: A549 NSCLC
CAKI-1 renal = tested on: CAKI-1 renal
COLO 205 colon = tested on: COLO 205 colon
HCC-2998 colon = tested on: HCC-2998 colon
HCT-116 colon = tested on: HCT-116 colon
HOP-92 NSCLC = tested on: HOP-92 NSCLC
HS 578T breast = tested on: HS 578T breast
K-562 leukemia = tested on: K-562 leukemia
MCF7 breast = tested on: MCF7 breast
NCI-H522 lung = tested on: NCI-H522 lung
OVCAR-5 ovarian = tested on: OVCAR-5 ovarian
RPMI-8226 leukemia = tested on: RPMI-8226 leukemia
SK-MEL-5 melanoma = tested on: SK-MEL-5 melanoma
SN12C renal = tested on: SN12C renal
SNB-75 CNS = tested on: SNB-75 CNS
SR leukemia = tested on: SR leukemia
T-47D breast = tested on: T-47D breast
UACC-257 melanoma = tested on: UACC-257 melanoma

Row | SMILES | TGI (A498 renal) | TGI (A549 NSCLC) | TGI (CAKI-1 renal) | TGI (COLO 205 colon) | TGI (HCC-2998 colon) | TGI (HCT-116 colon) | TGI (HOP-92 NSCLC) | TGI (HS 578T breast) | TGI (K-562 leukemia) | TGI (MCF7 breast) | TGI (NCI-H522 lung) | TGI (OVCAR-5 ovarian) | TGI (RPMI-8226 leukemia) | TGI (SK-MEL-5 melanoma) | TGI (SN12C renal) | TGI (SNB-75 CNS) | TGI (SR leukemia) | TGI (T-47D breast) | TGI (UACC-257 melanoma) | GI50 (HS 578T breast)
1 | CCOC(=O)C1=C(C)N(CC(C)C)C2(O)C(OC)CC(=O)C3C(=O)N(c4ccccc4)C(=O)C132 (centres undefined) | > 100 µM | > 100 µM | 98.7 µM | > 100 µM | 53.8 µM | > 100 µM | > 100 µM | > 100 µM | > 100 µM | > 100 µM | 34.5 µM | > 100 µM | > 100 µM | 43.9 µM | > 100 µM | 75.4 µM | 49.9 µM | > 100 µM | > 100 µM | –
2 | CC(=O)O[C@H]1C[C@H]2[C@@H]([C@H](OC(C)=O)C[C@@H]3CC4(CC[C@@]32C)OOC2(CCCCC2)OO4)[C@@H]2CC[C@H]([C@H](C)CCC(=O)O)[C@@]12C | 27.1 µM | 12.8 µM | 25.3 µM | 14 µM | 25 µM | 19.2 µM | 7.1 µM | 9.32 µM | 23.7 µM | 22.1 µM | 9.36 µM | 29.8 µM | 20.7 µM | 22.6 µM | 20.7 µM | 14.8 µM | 8.3 µM | 45.7 µM | 25 µM | –
3 | C=CC1(O)CCCC=C1COCc1ccccc1 (centres undefined) | > 100 µM | > 100 µM | > 100 µM | > 100 µM | > 100 µM | > 100 µM | > 100 µM | > 100 µM | > 100 µM | > 100 µM | 32.4 µM | > 100 µM | 68.3 µM | > 100 µM | > 100 µM | > 100 µM | 57 µM | > 100 µM | > 100 µM | –
4 | CC(=O)Oc1ccc(/C=C/C(=O)NCCOC(=O)/C=C/c2ccc(OC(C)=O)c(OC(C)=O)c2)cc1OC(C)=O | > 100 µM | > 100 µM | > 100 µM | > 100 µM | > 100 µM | 39.2 µM | 95.6 µM | > 100 µM | > 100 µM | > 100 µM | 29.6 µM | 97.6 µM | 90.5 µM | 47.1 µM | 68.5 µM | 79.6 µM | > 100 µM | 98.9 µM | > 100 µM | –
5 | COc1cc(S(=O)(=O)Nc2ccc(-c3csc(/N=C\c4cccs4)n3)cc2)ccc1Cl | > 100 µM | > 100 µM | > 100 µM | > 100 µM | 70.1 µM | > 100 µM | > 100 µM | > 100 µM | > 100 µM | 48.5 µM | > 100 µM | > 100 µM | > 100 µM | > 100 µM | > 100 µM | 81.5 µM | 52.2 µM | 62.8 µM | > 100 µM | –
6 | O=C1CC(=O)NC(=NN2C(=O)/C(=C/c3ccc(Cl)cc3)N=C2c2ccccc2)N1 | 31.7 µM | 30 µM | > 100 µM | 31.5 µM | 24.2 µM | 30.7 µM | 26.1 µM | 30.6 µM | 28 µM | 53.7 µM | 23.5 µM | 30.2 µM | 58.2 µM | 32 µM | 32.3 µM | 60.2 µM | 21.3 µM | > 100 µM | 42 µM | –
7 | CCN(CCCl)c1cc(CN(C)C)cc(NC(=O)c2cc(C(=O)Nc3cc(CN(C)C)cc(N(CC)CCCl)c3)n(C)n2)c1 | 4.41 µM | 1.8 µM | 2.72 µM | 2.05 µM | 2.11 µM | 1.3 µM | 3.38 µM | 1.52 µM | 1.12 µM | 1.38 µM | 0.384 µM | 9.36 µM | > 100 µM | 2.28 µM | 2.01 µM | 2.55 µM | > 100 µM | 6.43 µM | 2.89 µM | –
8 | Cn1c(SCc2c[nH]c3ccccc23)nnc1-c1ccc(Cl)cc1Cl | 86.3 µM | 48.5 µM | > 100 µM | 27.4 µM | 26.1 µM | 93 µM | 53 µM | > 100 µM | 24.9 µM | 84.9 µM | 45.9 µM | 86.7 µM | 27.1 µM | 27.5 µM | 47.5 µM | 25.9 µM | 16.6 µM | 43.2 µM | 56.1 µM | –
9 | COC(=O)c1ccccc1/C=C1\Cc2ccc3ccccc3c2C1C (centres undefined) | > 100 µM | > 100 µM | > 100 µM | > 100 µM | > 100 µM | 46.1 µM | > 100 µM | > 100 µM | > 100 µM | > 100 µM | > 100 µM | > 100 µM | > 100 µM | 64.5 µM | > 100 µM | > 100 µM | > 100 µM | 69 µM | > 100 µM | –
10 | O=C(c1ccccc1)c1ccc2nc3n(c2c1)C(c1c(Cl)cccc1Cl)SC3 (centres undefined) | 50.1 µM | 54.7 µM | > 51.7 µM | > 90.2 µM | > 50.4 µM | 12.8 µM | > 100 µM | > 65 µM | > 100 µM | > 100 µM | 5.1 µM | > 100 µM | > 74.7 µM | 14.6 µM | > 68.7 µM | 18.9 µM | 8.42 µM | 24.5 µM | > 100 µM | –
11 | Cc1cc(OC(=O)Nc2ccc(Cl)cc2)ccc1C(=S)Nc1ccccc1 | > 100 µM | > 100 µM | > 100 µM | > 100 µM | > 100 µM | > 100 µM | > 100 µM | > 100 µM | > 100 µM | > 100 µM | > 100 µM | > 100 µM | > 100 µM | > 100 µM | > 100 µM | > 100 µM | > 100 µM | > 100 µM | > 100 µM | –
12 | Clc1cccc2[nH]ncc12 | > 100 µM | > 100 µM | > 100 µM | > 100 µM | > 100 µM | > 100 µM | > 100 µM | > 100 µM | > 100 µM | > 100 µM | > 100 µM | > 100 µM | > 100 µM | > 100 µM | > 100 µM | > 100 µM | > 100 µM | > 100 µM | > 100 µM | –
13 | C=C(Cl)C(Cl)(CBr)CCC(Br)C(C)(C)Cl (centres undefined) | 4.03 µM and 4.02 µM and 6.05 µM | 9.99 µM and 7.54 µM and 16.7 µM | 2.36 µM and 1.99 µM and 2.1 µM | 4.02 µM and 7.41 µM and 31.6 µM | 6.35 µM and 2.97 µM and 8.14 µM | 1.77 µM and 1.61 µM and 5.75 µM | 3.5 µM and 2.72 µM and 4.84 µM | 5.25 µM and 5.08 µM and 9.16 µM | 24.4 µM and 10.8 µM and > 92.9 µM | 2.83 µM and 2.09 µM and 8.1 µM | 34.9 µM and 27.1 µM and 28.9 µM | 8.38 µM and 4.14 µM and 29.8 µM | 1.33 µM and 1.56 µM and 3.22 µM | 25.4 µM and 25.2 µM and 28.3 µM | 21.9 µM and 19.3 µM and 28.1 µM | 7.12 µM and 1.69 µM and 6.97 µM | 61.2 µM and 26.5 µM and 33.9 µM | 2.99 µM and 5.16 µM and 1.25 µM | 6.07 µM and 3.81 µM and 14.1 µM | 0.802 µM
14 | COc1cccc(N2C(=O)C3CC(CC(C)(C)C)c4c([nH]c5ccccc45)C3C2=O)c1 (centres undefined) | > 10 µM | > 10 µM | > 10 µM | > 10 µM | > 10 µM | > 10 µM | > 10 µM | 9.87 µM | > 10 µM | > 10 µM | > 10 µM | > 10 µM | > 10 µM | > 10 µM | > 10 µM | 7.04 µM | 4.2 µM | > 10 µM | > 10 µM | –
15 | COc1cccc(Nc2nc(NS(=O)(=O)c3cc(C)c(Cl)cc3S)n[nH]2)c1 | > 100 µM | > 100 µM | > 100 µM | > 100 µM | > 100 µM | > 100 µM | > 100 µM | > 100 µM | > 100 µM | > 100 µM | > 100 µM | > 100 µM | > 100 µM | > 100 µM | > 100 µM | > 100 µM | > 100 µM | > 100 µM | > 100 µM | –
16 | C=C1C(=O)O[C@@H]2[C@H]1C[C@H](I)[C@@]1(C)CC[C@H](O1)[C@](C)(I)CCCC(C)[C@@H]2O (some centres undefined) | 28.1 µM | 26.9 µM | 4.19 µM | 4.95 µM | 25.2 µM | 8.34 µM | 3.52 µM | 40.1 µM | > 42.1 µM | 7.29 µM | 1.59 µM | 26.5 µM | 9.3 µM | > 35.8 µM | 17.7 µM | 21.3 µM | 9.41 µM | 12.7 µM | 20.1 µM | –
17 | COc1cccc(/C=C2/S/C(=N/Nc3nc(C)c(C(C)=O)s3)NC2=O)c1O | > 100 µM | > 100 µM | > 100 µM | 64.9 µM | > 100 µM | > 100 µM | 91.7 µM | > 100 µM | > 100 µM | > 100 µM | 33.2 µM | 94.2 µM | 84.6 µM | 43.5 µM | > 100 µM | > 100 µM | > 100 µM | 96.5 µM | 86.2 µM | –
